Experimental data from US20050101611A1, “Oral formulation comprising an inhibitor compound of the ileal bile transport and an hmg co-a reductase inhibitor” (priority 2000, published 2005).

Molecular target: T1, ileal bile acid transport system (IBAT) (Homo sapiens, UniProt Q12908)
T1 sequence (Q12908 1-348): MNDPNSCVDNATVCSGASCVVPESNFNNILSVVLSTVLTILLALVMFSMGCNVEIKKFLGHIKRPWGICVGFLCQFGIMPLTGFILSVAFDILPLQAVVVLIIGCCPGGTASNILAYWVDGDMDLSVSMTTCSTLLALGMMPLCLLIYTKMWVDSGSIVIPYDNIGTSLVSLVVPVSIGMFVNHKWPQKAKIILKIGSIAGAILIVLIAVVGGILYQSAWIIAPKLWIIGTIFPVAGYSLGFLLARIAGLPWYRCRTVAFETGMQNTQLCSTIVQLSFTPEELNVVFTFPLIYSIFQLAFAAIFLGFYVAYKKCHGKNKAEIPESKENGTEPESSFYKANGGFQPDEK
Test: inhibition of IBAT
Conditions: statement in background text; no method or data given

`COc1ccc([C@@H]2Sc3ccccc3N(CCN(C)C)C(=O)[C@@H]2OC(C)=O)cc1` [diltiazem] was tested, and the “inhibition of IBAT” value was “no activity”.
